Experimental findings from patent US11091478B2 (Fochon Pharmaceuticals, Ltd., priority 2017, dated 2021) are described below.

The subject of one assay is DOHH2 cells. Nature of the assay: Cell proliferation assay (MTS), DOHH2 cells, 120 h. The format is cell-based. The method, boiled down:
(§1)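 Proliferation was scored by MTS (2 h, then SDS stop, A490 with 650 nm reference) and IC50 derived. Compound ran at nine final concentrations from 1.5 to 10000 nM. DOHH2 were incubated 120 h and RS4;11 72 h, both plated at 5000 cells/well in RPMI-1640 plus 10% FBS.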

The next assay relates to RS4;11 cells. The experiment in a line: Cell proliferation assay (MTS), RS4;11 cells, 72 h. The format is cell-based. In a few lines: as §1

Like-named read-outs stand apart in the source and are kept apart here.

Consider `C[C@H]1CN(CC[C@@H]2COc3cc(S(=O)(=O)NC(=O)c4ccc(N5CCN(CC6=C(c7ccc(Cl)cc7)CC(C)(C)CC6)CC5)cc4Oc4cnc5[nH]ccc5c4)cc([N+](=O)[O-])c3N2)CCN1C1COC1` [Example 2-40], for which the half-inhibitory concentration (IC50) in the assay on DOHH2 cells (Homo sapiens, DOHH-2, 120 h) was 0.036 µM; in the assay on RS4;11 cells (Homo sapiens, RS4-11, 72 h), 0.022 µM.
In the same order, the values of `C[C@H]1CN(CC[C@@H]2COc3cc(S(=O)(=O)NC(=O)c4ccc(N5CCN(CC6=C(c7ccc(Cl)cc7)CC(C)(C)CC6)CC5)cc4Oc4cnc5[nH]ccc5c4)cc([N+](=O)[O-])c3N2)CCO1` [Example 2-41, 2-((1H-pyrrolo[2,3-b]pyridin-5-yl)oxy)-4-(4-((4′-chloro-5,5-dimethyl-3,4,5,6-tetrahydro-[1,1′-biphenyl]-2-yl)methyl)piperazin-1-yl)-N-(((R)-3-(2-((S)-2-methylmorpholino)ethyl)-5-nitro-3,4-dihydro-2H-benzo[b][1,4]oxazin-7-yl)sulfonyl)benzamide] are 0.023 µM and 0.002 µM.
Regarding `C[C@@H]1CN(CC[C@@H]2COc3cc(S(=O)(=O)NC(=O)c4ccc(N5CCN(CC6=C(c7ccc(Cl)cc7)CC(C)(C)CC6)CC5)cc4Oc4cnc5[nH]ccc5c4)cc([N+](=O)[O-])c3N2)CCO1` [Example 2-42, 2-((1H-pyrrolo[2,3-b]pyridin-5-yl)oxy)-4-(4-((4′-chloro-5,5-dimethyl-3,4,5,6-tetrahydro-[1,1′-biphenyl]-2-yl)methyl)piperazin-1-yl)-N-(((R)-3-(2-((R)-2-methylmorpholino)ethyl)-5-nitro-3,4-dihydro-2H-benzo[b][1,4]oxa-zin-7-yl)sulfonyl)benzamide], the IC50 in the assay on DOHH2 cells (Homo sapiens, DOHH-2, 120 h) is 0.038 µM; in the assay on RS4;11 cells (Homo sapiens, RS4-11, 72 h) it was 0.006 µM.
For the molecule `CC1(C)CCC(CN2CCN(c3ccc(C(=O)NS(=O)(=O)c4cc5c(c([N+](=O)[O-])c4)N[C@@H](CCN=S(C)(C)=O)CO5)c(Oc4cnc5[nH]ccc5c4)c3)CC2)=C(c2ccc(Cl)cc2)C1` [Example 2-43, (S)-2-((1H-pyrrolo[2,3-b]pyridin-5-yl)oxy)-4-(4-((4′-chloro-5,5-dimethyl-3,4,5,6-tetra-hydro-[1,1′-biphenyl]-2-yl)methyl)piperazin-1-yl)-N-((3-(2-((dimethyl(oxo)-l6-sulfanyl-idene)amino)ethyl)-5-nitro-3,4-dihydro-2H-benzo[b][1,4]oxazin-7-yl)sulfonyl)benza-mide], the IC50 in the assay with DOHH2 cells turned out to be 0.01 µM; in the assay with RS4;11 cells, 0.001 µM.
Regarding `CC1(C)CCC(CN2CCN(c3ccc(C(=O)NS(=O)(=O)c4cc5c(c([N+](=O)[O-])c4)N[C@@H](CCN4CC(O)C4)CO5)c(Oc4cnc5[nH]ccc5c4)c3)CC2)=C(c2ccc(Cl)cc2)C1` [Example 2-44, (S)-2-((1H-pyrrolo[2,3-b]pyridin-5-yl)oxy)-4-(4-((4′-chloro-5,5-dimethyl-3,4,5,6-tetra-hydro-[1,1′-biphenyl]-2-yl)methyl)piperazin-1-yl)-N-((3-(2-(3-hydroxyazetidin-1-yl)eth-yl)-5-nitro-3,4-dihydro-2H-benzo[b][1,4]oxazin-7-yl)sulfonyl)benzamide], the IC50 was 0.051 µM in the assay with DOHH2 cells (Homo sapiens, DOHH-2, 120 h) and 0.046 µM in the assay on RS4;11 cells (Homo sapiens, RS4-11, 72 h).
Turning to `CC1(C)CCC(CN2CCN(c3ccc(C(=O)NS(=O)(=O)c4cc5c(c([N+](=O)[O-])c4)N[C@@H](CCN4CC(C)(O)C4)CO5)c(Oc4cnc5[nH]ccc5c4)c3)CC2)=C(c2ccc(Cl)cc2)C1` [Example 2-45, (S)-2-((1H-pyrrolo[2,3-b]pyridin-5-yl)oxy)-4-(4-((4′-chloro-5,5-dimethyl-3,4,5,6-tetra-hydro-[1,1′-biphenyl]-2-yl)methyl)piperazin-1-yl)-N-((3-(2-(3-hydroxy-3-methylazeti-din-1-yl)ethyl)-5-nitro-3,4-dihydro-2H-ben-zo[b][1,4]oxazin-7-yl)sulfonyl)benzamide], the IC50 in the assay with DOHH2 cells (Homo sapiens, DOHH-2, 120 h) came out at 0.017 µM; in the assay on RS4;11 cells (Homo sapiens, RS4-11, 72 h), 0.012 µM.
For the molecule `C[C@@H]1CN(CC[C@H]2COc3cc(S(=O)(=O)NC(=O)c4ccc(N5CCN(CC6=C(c7ccc(Cl)cc7)CC(C)(C)CC6)CC5)cc4Oc4cnc5[nH]ccc5c4)cc([N+](=O)[O-])c3N2)CCN1C` [Example 2-46, 2-((1H-pyrrolo[2,3-b]pyridin-5-yl)oxy)-4-(4-((4′-chloro-5,5-dimethyl-3,4,5,6-tetrahydro-[1,1′-biphenyl]-2-yl)methyl)piperazin-1-yl)-N-(((S)-3-(2-((R)-3,4-dimethylpiperazin-1-yl)ethyl)-5-nitro-3,4-dihydro-2H-benzo [b][1,4]oxazin-7-yl)sulfonyl)benzamide], the IC50 stood at 0.007 µM in the assay with DOHH2 cells (Homo sapiens, DOHH-2, 120 h) and 0.001 µM in the assay on RS4;11 cells (Homo sapiens, RS4-11, 72 h).
As to `C[C@H]1CN(CC[C@H]2COc3cc(S(=O)(=O)NC(=O)c4ccc(N5CCN(CC6=C(c7ccc(Cl)cc7)CC(C)(C)CC6)CC5)cc4Oc4cnc5[nH]ccc5c4)cc([N+](=O)[O-])c3N2)CCN1C` [Example 2-47, 2-((1H-pyrrolo[2,3-b]pyridin-5-yl)oxy)-4-(4-((4′-chloro-5,5-dimethyl-3,4,5,6-tetrahydro-[1,1′-biphenyl]-2-yl)methyl)piperazin-1-yl)-N-(((S)-3-(2-((S)-3,4-dimethylpiperazin-1-yl)ethyl)-5-nitro-3,4-dihydro-2H-benzo [b][1,4]oxazin-7-yl)sulfonyl)benzamide], the IC50 in the assay on DOHH2 cells (Homo sapiens, DOHH-2, 120 h) stood at 0.012 µM; in the assay with RS4;11 cells (Homo sapiens, RS4-11, 72 h) it was 0.022 µM.
As to `CC1(C)CCC(CN2CCN(c3ccc(C(=O)NS(=O)(=O)c4cc5c(c([N+](=O)[O-])c4)N[C@@H](CCN4CCN(C6COC6)CC4)CO5)c(Oc4cnc5[nH]ccc5c4)c3)CC2)=C(c2ccc(Cl)cc2)C1` [Example 2-48, (S)-2-((1H-pyrrolo[2,3-b]pyridin-5-yl)oxy)-4-(4-((4′-chloro-5,5-dimethyl-3,4,5,6-tetra-hydro-[1,1′-biphenyl]-2-yl)methyl)piperazin-1-yl)-N-((5-nitro-3-(2-(4-(oxetan-3-yl)piper-azin-1-yl)ethyl)-3,4-dihydro-2H-benzo [b][1,4]oxazin-7-yl)sulfonyl)benzamide], the IC50 in the assay with DOHH2 cells (Homo sapiens, DOHH-2, 120 h) was found to be 0.009 µM; in the assay with RS4;11 cells (Homo sapiens, RS4-11, 72 h), 0.014 µM.
Regarding `C[C@@H]1CN(CC[C@H]2COc3cc(S(=O)(=O)NC(=O)c4ccc(N5CCN(CC6=C(c7ccc(Cl)cc7)CC(C)(C)CC6)CC5)cc4Oc4cnc5[nH]ccc5c4)cc([N+](=O)[O-])c3N2)CCN1C1COC1` [Example 2-49, 2-((1H-pyrrolo[2,3-b]pyridin-5-yl)oxy)-4-(4-((4′-chloro-5,5-dimethyl-3,4,5,6-tetrahydro-[1,1′-biphenyl]-2-yl)methyl)piperazin-1-yl)-N-(((S)-3-(2-((R)-3-methyl-4-(oxetan-3-yl)piperazin-1-yl)ethyl)-5-nitro-3,4-dihydro-2H-benzo[b][1,4]oxazin-7-yl)sulfonyl) benzamide], the IC50 with DOHH2 cells (Homo sapiens, DOHH-2, 120 h) was 0.012 µM; in the assay on RS4;11 cells (Homo sapiens, RS4-11, 72 h), 0.016 µM.
`C[C@H]1CN(CC[C@H]2COc3cc(S(=O)(=O)NC(=O)c4ccc(N5CCN(CC6=C(c7ccc(Cl)cc7)CC(C)(C)CC6)CC5)cc4Oc4cnc5[nH]ccc5c4)cc([N+](=O)[O-])c3N2)CCN1C1COC1` [Example 2-50]: the IC50 was 0.022 µM in the assay on DOHH2 cells (Homo sapiens, DOHH-2, 120 h) and 0.009 µM in the assay on RS4;11 cells (Homo sapiens, RS4-11, 72 h).
In the case of `C[C@H]1CN(CC[C@H]2COc3cc(S(=O)(=O)NC(=O)c4ccc(N5CCN(CC6=C(c7ccc(Cl)cc7)CC(C)(C)CC6)CC5)cc4Oc4cnc5[nH]ccc5c4)cc([N+](=O)[O-])c3N2)CCO1` [Example 2-51], the IC50 came to 0.013 µM in the assay with DOHH2 cells (Homo sapiens, DOHH-2, 120 h) and 0.01 µM in the assay with RS4;11 cells (Homo sapiens, RS4-11, 72 h).
Consider `C[C@@H]1CN(CC[C@H]2COc3cc(S(=O)(=O)NC(=O)c4ccc(N5CCN(CC6=C(c7ccc(Cl)cc7)CC(C)(C)CC6)CC5)cc4Oc4cnc5[nH]ccc5c4)cc([N+](=O)[O-])c3N2)CCO1` [Example 2-52, 2-((1H-pyrrolo[2,3-b]pyridin-5-yl)oxy)-4-(4-((4′-chloro-5,5-dimethyl-3,4,5,6-tetrahydro-[1,1′-biphenyl]-2-yl)methyl)piperazin-1-yl)-N-(((S)-3-(2-((R)-2-methylmorpholino)ethyl)-5-nitro-3,4-dihydro-2H-benzo[b][1,4]oxazin-7-yl)sulfonyl)benzamide], for which the half-inhibitory concentration (IC50) in the assay on DOHH2 cells (Homo sapiens, DOHH-2, 120 h) worked out at 0.031 µM; in the assay with RS4;11 cells (Homo sapiens, RS4-11, 72 h), 0.025 µM.
For `CC(=O)NC[C@H]1COc2cc(S(=O)(=O)NC(=O)c3ccc(N4CCN(CC5=C(c6ccc(Cl)cc6)CC(C)(C)CC5)CC4)cc3Oc3cnc4[nH]ccc4c3)cc([N+](=O)[O-])c2N1` [Example 2-53, (S)-2-((1H-pyrrolo[2,3-b]pyridin-5-yl)oxy)-N-((3-(acetamidomethyl)-5-nitro-3,4-dihydro-2H-benzo[b][1,4]oxazin-7-yl)sulfonyl)-4-(4-((4′-chloro-5,5-dimethyl-3,4,5,6-tetra-hydro-[1,1′-biphenyl]-2-yl)methyl)piperazin-1-yl)benzamide], the IC50 in the assay with DOHH2 cells (Homo sapiens, DOHH-2, 120 h) was 0.543 µM; in the assay with RS4;11 cells (Homo sapiens, RS4-11, 72 h) it was 0.053 µM.
`CC1(C)CCC(CN2CCN(c3ccc(C(=O)NS(=O)(=O)c4cc5c(c([N+](=O)[O-])c4)N[C@@H](CNC(=O)C4CCOCC4)CO5)c(Oc4cnc5[nH]ccc5c4)c3)CC2)=C(c2ccc(Cl)cc2)C1` [Example 2-54, (S)-N-((7-(N-(2-((1H-pyrrolo[2,3-b]pyridin-5-yl)oxy)-4-(4-((4′-chloro-5,5-dimethyl-3,4,5,6-tetrahydro-[1,1′-biphenyl]-2-yl)methyl)piperazin-1-yl)benzoyl)sulfamoyl)-5-nitro-3,4-dihydro-2H-benzo[b][1,4]oxa-zin-3-yl)meth-yl)tetrahydro-2H-pyran-4-carboxamide]: the IC50 worked out at 0.134 µM with DOHH2 cells (Homo sapiens, DOHH-2, 120 h) and 0.061 µM with RS4;11 cells (Homo sapiens, RS4-11, 72 h).
The matching figures for `CC1(C)CCC(CN2CCN(c3ccc(C(=O)NS(=O)(=O)c4cc5c(c([N+](=O)[O-])c4)N[C@@H](CCNC(=O)C4CCOCC4)CO5)c(Oc4cnc5[nH]ccc5c4)c3)CC2)=C(c2ccc(Cl)cc2)C1` [Example 2-56, (S)-N-(2-(7-(N-(2-((1H-pyrrolo[2,3-b]pyridin-5-yl)oxy)-4-(4-((4′-chloro-5,5-dimethyl-3,4,5,6-tetrahydro-[1,1′-biphenyl]-2-yl)meth-yl)piperazin-1-yl)benzoyl)sulfamoyl)-5-nitro-3,4-dihydro-2H-benzo[b][1,4]oxazin-3-yl)ethyl)tetrahydro-2H-pyran-4-carboxamide]: 0.571 µM and 0.041 µM.

Usually IC50 stands for the concentration that inhibits the measured activity by half.
